Experimental findings from US20260223850A1, “SUBSTITUTED PYRROLIDONE COMPOUND, PREPARATION METHOD THEREFOR, COMPOSITION AND APPLICATION THEREOF” (QINGDAO KINGAGROOT CHEMICAL COMPOUND CO., LTD., priority 2023, published 2026) are described below.

Type in all cases: in vivo
Conditions in all cases: 120 g a.i./ha, seedling stage sealing, 15 days, fresh weight control rate

Data set [1] relates to Echinochloa crusgalli. Put plainly: Seedling stage sealing experiment for water-seeding.
The test system of data set [2] is Echinochloa phyllopogon. The description is as above. Put shortly: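 Read-out: 0–9 damage level from fresh-weight control rate (9 = completely dead, 1 = under 10%, 0 = no effect), averaged over triplicates, taken 15 days after spraying. Doses were 120, 60, 30 and 15 g a.i./ha, acetone/water solution, spray tower.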
Data set [3] concerns Huaidao (rice cultivar). The experiment in a line: Seedling stage sealing experiment for water-seeding (crop safety). From the text: The activity level criteria for plant damage (i.e., growth control rate) are as follows: • Level 9: completely dead; • Level 8: growth control rate greater than or equal to 90% and less than 100%; • Level 7: growth control rate greater than or equal to 80% and less than 90%; • Level 6: growth control rate greater than or equal to 70% and less than 80%; • Level 5: growth control rate greater than or equal to 50% and less than 70%; • Level 4: growth control rate greater than or equal to 30% and less than 50%; • Level 3: growth control rate greater than or equal to 20% and less than 30%; • Level 2: growth control rate greater than or equal to 10% and less than 20%; • Level 1: growth control rate less than 10%; • Level 0: no effect.
The above growth control rates are fresh weight control rates.
Echinochloa phyllopogon, Digitaria sanguinalis, Huaidao (rice cultivar), etc. were broadcasted on the surface of nutrition bowls filled with soil and fully covered by soil. The foregoing well-prepared nutrition bowls were then placed in a cultivation box with water filled to a suitable height to keep the soil in the nutrition bowls moist. A test compound of the present invention was individually dissolved with acetone, then diluted into solution of a certain concentration using a certain amount of water, and sprayed using a spray tower. The plants were placed on a greenhouse seedbed and cultured for 15 days, and the experimental results were then collected. The compound was applied at 120, 60, 30 and 15 g a.i./ha in triplicate, and the results were averaged.

For the molecule `CCc1ccc([C@H]2CN(C)C(=O)[C@@H]2C(=O)Nc2cnn(C)c2Cl)s1` [338′], the “Echinochloa crusgalli activity level (growth control rate)” value (shortened to “Echinochloa crusgalli activity level”) in data set [1] came to 9. Also, the “Echinochloa phyllopogon activity level (growth control rate)” value (shortened to “Echinochloa phyllopogon activity level”) in data set [2] was 6 (Level 6: growth control rate greater than or equal to 70% and less than 80%). In data set [3], the “Huaidao (rice cultivar) plant damage level” value (“Huaidao” for short) came to 0.
On to `COCc1c(NC(=O)[C@H]2C(=O)N(C)C[C@@H]2c2cccc(C)c2)cnn1C` [378′], for which the “Echinochloa crusgalli activity level” value in data set [1] was 9. The “Echinochloa phyllopogon activity level” value in data set [2] is 6 (Level 6: growth control rate greater than or equal to 70% and less than 80%). Further, in data set [3], the “Huaidao” value is 0.
As for `C=C(C)c1c(NC(=O)[C@H]2C(=O)N(C)C[C@@H]2c2cccc(C)c2)cnn1C` [379′], the “Echinochloa crusgalli activity level” value in data set [1] is 9. In addition, the “Echinochloa phyllopogon activity level” value in data set [2] is 6 (Level 6: growth control rate greater than or equal to 70% and less than 80%). The “Huaidao” value in data set [3] is reported as 0.
As to `C=CCn1ncc(NC(=O)[C@H]2C(=O)N(C)C[C@@H]2c2cccc(C)c2)c1Cl` [381′], the “Echinochloa crusgalli activity level” value in data set [1] was 9. The “Echinochloa phyllopogon activity level” value in data set [2] is 6 (Level 6: growth control rate greater than or equal to 70% and less than 80%). Moreover, the “Huaidao” value in data set [3] came to 0.
For `CCn1ncc(NC(=O)[C@H]2C(=O)N(C)C[C@@H]2c2cccc(C)c2)c1Cl` [385′], the “Echinochloa crusgalli activity level” value in data set [1] is listed as 9. The “Echinochloa phyllopogon activity level” value in data set [2] was found to be 9. For the same molecule, the “Huaidao” value in data set [3] is 2 (Level 2: growth control rate greater than or equal to 10% and less than 20%).
Take `COCCn1ncc(NC(=O)[C@H]2C(=O)N(C)C[C@@H]2c2cccc(C)c2)c1Cl` [386′]: the “Echinochloa crusgalli activity level” value in data set [1] was 9. Moreover, in data set [2], the “Echinochloa phyllopogon activity level” value is 6 (Level 6: growth control rate greater than or equal to 70% and less than 80%). Besides, the “Huaidao” value in data set [3] came out at 0.
As to `Cc1cccc([C@H]2CN(C)C(=O)[C@@H]2C(=O)Nc2cnn(C)c2F)c1` [388′], in data set [1], the “Echinochloa crusgalli activity level” value is listed as 9. For the same molecule, in data set [2], the “Echinochloa phyllopogon activity level” value was 6 (Level 6: growth control rate greater than or equal to 70% and less than 80%). The “Huaidao” value in data set [3] was 0.
For the molecule `Cc1cccc([C@H]2CN(C)C(=O)[C@@H]2C(=O)Nc2cnn(C)c2Br)c1` [389′], the “Echinochloa crusgalli activity level” value in data set [1] amounted to 9. Moreover, the “Echinochloa phyllopogon activity level” value in data set [2] turned out to be 9. For the same molecule, the “Huaidao” value in data set [3] was 0.
Turning to `Cc1cccc([C@H]2CN(C)C(=O)[C@@H]2C(=O)Nc2cnn(C)c2C#N)c1` [391′], the “Echinochloa crusgalli activity level” value in data set [1] is 9. Besides, the “Echinochloa phyllopogon activity level” value in data set [2] was 9. The “Huaidao” value in data set [3] is listed as 0.
Take `CCn1ncc(NC(=O)[C@H]2C(=O)N(C)C[C@@H]2c2cccc(C)c2)c1C1CC1` [394′]: the “Echinochloa crusgalli activity level” value in data set [1] came to 9. For the same molecule, the “Echinochloa phyllopogon activity level” value in data set [2] is 6 (Level 6: growth control rate greater than or equal to 70% and less than 80%). The “Huaidao” value in data set [3] was 0.
Regarding `Cc1cccc([C@H]2CN(C)C(=O)[C@@H]2C(=O)Nc2cn(C)nc2I)c1` [399′], the “Echinochloa crusgalli activity level” value in data set [1] came out at 9. Moreover, in data set [2], the “Echinochloa phyllopogon activity level” value is reported as 9. Besides, the “Huaidao” value in data set [3] is reported as 0.
On to `C=Cc1c(NC(=O)[C@H]2C(=O)N(C)C[C@@H]2c2cccc(C(F)(F)F)c2)cnn1C(F)F` [406′], for which the “Echinochloa crusgalli activity level” value in data set [1] is 9. Moreover, in data set [2], the “Echinochloa phyllopogon activity level” value is on record as 9. Also, the “Huaidao” value in data set [3] was 2 (Level 2: growth control rate greater than or equal to 10% and less than 20%).
Take `C=C(C)c1c(NC(=O)[C@H]2C(=O)N(C)C[C@@H]2c2cccc(C(F)(F)F)c2)cnn1C` [407′]: in data set [1], the “Echinochloa crusgalli activity level” value amounted to 9. In addition, the “Echinochloa phyllopogon activity level” value in data set [2] is 9. In addition, the “Huaidao” value in data set [3] came to 0.
For `CCn1ncc(NC(=O)[C@H]2C(=O)N(C)C[C@@H]2c2cccc(C(F)(F)F)c2)c1C1CC1` [408′], the “Echinochloa crusgalli activity level” value in data set [1] turned out to be 9. The “Echinochloa phyllopogon activity level” value in data set [2] was 9. In addition, in data set [3], the “Huaidao” value worked out at 0.
Regarding `CN1C[C@H](c2cccc(C3CC3)c2)[C@@H](C(=O)Nc2cnn(C(F)F)c2Cl)C1=O` [413′], the “Echinochloa crusgalli activity level” value in data set [1] is listed as 9. Moreover, the “Echinochloa phyllopogon activity level” value in data set [2] amounted to 9. Moreover, the “Huaidao” value in data set [3] amounted to 0.
In the case of `Cc1cc(C)cc([C@H]2CNC(=O)[C@@H]2C(=O)Nc2cnn(C)c2Cl)c1` [416′], the “Echinochloa crusgalli activity level” value in data set [1] is given as 9. Besides, the “Echinochloa phyllopogon activity level” value in data set [2] was 6 (Level 6: growth control rate greater than or equal to 70% and less than 80%). The “Huaidao” value in data set [3] stood at 0.
With `Cc1cc(C)cc([C@H]2CN(C)C(=O)[C@@H]2C(=O)Nc2cnn(C(C)C)c2Cl)c1` [419′], in data set [1], the “Echinochloa crusgalli activity level” value was 9. The “Echinochloa phyllopogon activity level” value in data set [2] was found to be 9. In data set [3], the “Huaidao” value is 0.
As to `COCn1ncc(NC(=O)[C@H]2C(=O)N(C)C[C@@H]2c2cc(C)cc(C)c2)c1Cl` [422′], the “Echinochloa crusgalli activity level” value in data set [1] worked out at 9. In data set [2], the “Echinochloa phyllopogon activity level” value was found to be 9. Also, in data set [3], the “Huaidao” value was 1 (Level 1: growth control rate less than 10%).
Turning to `COCCn1ncc(NC(=O)[C@H]2C(=O)N(C)C[C@@H]2c2cc(C)cc(C)c2)c1Cl` [423′], the “Echinochloa crusgalli activity level” value in data set [1] turned out to be 9. Further, the “Echinochloa phyllopogon activity level” value in data set [2] was 6 (Level 6: growth control rate greater than or equal to 70% and less than 80%). Also, the “Huaidao” value in data set [3] turned out to be 0.
For `Cc1cc(C)cc([C@H]2CN(C)C(=O)[C@@H]2C(=O)Nc2cnn(C)c2I)c1` [426′], the “Echinochloa crusgalli activity level” value in data set [1] is reported as 9. Also, the “Echinochloa phyllopogon activity level” value in data set [2] turned out to be 9. The “Huaidao” value in data set [3] was found to be 0.
On to `Cc1cc(C)cc([C@H]2CN(C)C(=O)[C@@H]2C(=O)Nc2cnn(C)c2C(F)(F)F)c1` [427′], for which, in data set [1], the “Echinochloa crusgalli activity level” value is given as 9. In addition, the “Echinochloa phyllopogon activity level” value in data set [2] stood at 9. In addition, the “Huaidao” value in data set [3] is 2 (Level 2: growth control rate greater than or equal to 10% and less than 20%).
`CCn1ncc(NC(=O)[C@H]2C(=O)N(C)C[C@@H]2c2cc(C)cc(C)c2)c1C1CC1` [432′]: the “Echinochloa crusgalli activity level” value in data set [1] worked out at 9. Also, the “Echinochloa phyllopogon activity level” value in data set [2] is on record as 9. Besides, the “Huaidao” value in data set [3] is on record as 0.
For `COC(=O)c1c(NC(=O)[C@H]2C(=O)N(C)C[C@@H]2c2cc(C)cc(C)c2)cnn1C` [433′], the “Echinochloa crusgalli activity level” value in data set [1] is given as 9. For the same molecule, the “Echinochloa phyllopogon activity level” value in data set [2] was 6 (Level 6: growth control rate greater than or equal to 70% and less than 80%). Moreover, the “Huaidao” value in data set [3] turned out to be 0.
Consider `CCc1cc(C)cc([C@H]2CN(C)C(=O)[C@@H]2C(=O)Nc2cnn(C(F)F)c2Cl)c1` [438′], for which the “Echinochloa crusgalli activity level” value in data set [1] amounted to 9. In addition, in data set [2], the “Echinochloa phyllopogon activity level” value is reported as 9. For the same molecule, the “Huaidao” value in data set [3] is 2 (Level 2: growth control rate greater than or equal to 10% and less than 20%).
Consider `CCc1cc(CC)cc([C@H]2CN(C)C(=O)[C@@H]2C(=O)Nc2cnn(C)c2Cl)c1` [439′], for which the “Echinochloa crusgalli activity level” value in data set [1] turned out to be 9. Also, the “Echinochloa phyllopogon activity level” value in data set [2] amounted to 9. Further, the “Huaidao” value in data set [3] is 2 (Level 2: growth control rate greater than or equal to 10% and less than 20%).
For `CN1C[C@H](c2cc(Br)cc(Br)c2)[C@@H](C(=O)Nc2cnn(C)c2Cl)C1=O` [440′], the “Echinochloa crusgalli activity level” value in data set [1] was determined as 9. Moreover, the “Echinochloa phyllopogon activity level” value in data set [2] was 9. Also, the “Huaidao” value in data set [3] is 0.
For `CN1C[C@H](c2cc(Cl)cc(Cl)c2)[C@@H](C(=O)Nc2cnn(C)c2Cl)C1=O` [441′], the “Echinochloa crusgalli activity level” value in data set [1] worked out at 9. The “Echinochloa phyllopogon activity level” value in data set [2] worked out at 9. Also, in data set [3], the “Huaidao” value came to 0.
As to `CN1C[C@H](c2cc(Cl)cc(Cl)c2)[C@@H](C(=O)Nc2cnn(C(F)F)c2Cl)C1=O` [442′], the “Echinochloa crusgalli activity level” value in data set [1] is 8 (Level 8: growth control rate greater than or equal to 90% and less than 100%). Further, the “Echinochloa phyllopogon activity level” value in data set [2] is 8 (Level 8: growth control rate greater than or equal to 90% and less than 100%). The “Huaidao” value in data set [3] came to 0.
